Assay results taken from PMC7269146, “Jingzhaotoxin-X, a gating modifier of Kv4.2 and Kv4.3 potassium channels purified from the venom of the Chinese tarantula Chilobrachys jingzhao” (The Journal of Venomous Animals and Toxins Including …, 2020).
Entries after “also recorded” stand apart in the source; their conditions may differ. Where a SMILES comes first, the peptide text is derived from it. Bridges are numbered along the chain shown (N, C = ends).

Assays:
Nav1.7 = assay: voltage-clamp, Nav1.7 currents; type: cell-based, human; conditions: 1 μM; n = 3
Description: (§1) Rat cDNA genes encoding Kv4.2 (Accession: NM_031730.2) and Kv4.3 (Accession: AB003587.1) were subcloned to vector pcDNA3.1. In addition, human cDNA genes encoding Nav1.7 (Accession: DQ857292.1) and Nav1.5 (Accession: AB158469.2) were subcloned to vectors pcDNA3.1-mod and pcDNA3.1, separately. Then, Kv4.2, Kv4.3, Nav1.5 and Nav1.7 constructs were transiently transfected into the human embryonic kidney 293t (HEK293t) cells using lipofectamine 2000 (Invitrogen, USA) in accordance with manufacturer protocols. Thereafter, HEK293 cells were inoculated within Dulbecco’s modified Eagle’s medium (DMEM) containing 10% fetal bovine serum (FBS) at 5% CO2 and 37°C. The Kv4.3 channel and the Kv4.2 counterpart were then transfected in the absence of β subunit. Subsequently, cells were incubated with a DNA-lipofectamine mixture (one reporter plasmid for green fluorescence protein and channel constructs) for 4-6 h, and were washed with the fresh medium.
An EPC-10 patch-clamp amplifier (HEKA, Germany) was employed to record the potassium currents at the configuration of whole-cell patch-clamp under an ambient temperature of 22-25°C. The resistance was 2.0-3.0 MΩ when the recording pipette contained a full volume of internal solution (supplemented with 140 mM KCl, 10 mM HEPES, 2.5 mM MgCl2, 5 mM ATP and 11 mM EGTA). […]

Kv4.2 = target: T1, Kv4.2 (Rattus norvegicus, UniProt Q63881); assay: current-voltage relationship / activation, Kv4.2; type: cell-based
T1 construct: expressed in transfected cells; host or cells: HEK293t
T1 sequence (Q63881 1-630): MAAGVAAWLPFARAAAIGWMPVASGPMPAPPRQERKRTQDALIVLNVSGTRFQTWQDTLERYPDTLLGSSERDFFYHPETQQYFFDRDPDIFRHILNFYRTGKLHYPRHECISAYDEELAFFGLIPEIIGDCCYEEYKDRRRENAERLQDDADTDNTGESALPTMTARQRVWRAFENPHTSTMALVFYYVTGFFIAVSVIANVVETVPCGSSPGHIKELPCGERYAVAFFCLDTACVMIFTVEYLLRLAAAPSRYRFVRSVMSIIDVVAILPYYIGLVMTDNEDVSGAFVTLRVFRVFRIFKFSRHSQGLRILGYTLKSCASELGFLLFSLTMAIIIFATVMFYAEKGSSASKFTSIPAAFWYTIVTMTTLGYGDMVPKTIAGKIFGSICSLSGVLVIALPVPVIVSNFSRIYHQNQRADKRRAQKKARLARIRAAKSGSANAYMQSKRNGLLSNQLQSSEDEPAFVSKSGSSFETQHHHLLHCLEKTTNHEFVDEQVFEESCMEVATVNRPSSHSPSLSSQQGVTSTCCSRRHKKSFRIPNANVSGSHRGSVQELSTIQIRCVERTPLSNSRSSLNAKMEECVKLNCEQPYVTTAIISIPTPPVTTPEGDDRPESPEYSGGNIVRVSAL
Description: as §1
An EPC-10 patch-clamp amplifier (HEKA, Germany) was employed to record the potassium currents at the configuration of whole-cell patch-clamp under an ambient temperature of 22-25°C. The resistance was 2.0-3.0 MΩ when the recording pipette contained a full volume of internal solution (supplemented with 140 mM KCl, 10 mM HEPES, 2.5 mM MgCl2, 5 mM ATP and 11 mM EGTA). KOH was utilized to adjust the pH to 7.2, while sucrose was employed to adjust the osmolarity to 310 mOsm/L. The culture medium was replaced with an external solution containing 150 mM NaCl, 2.5 mM CaCl2, 10 mM HEPES, 2 mM MgCl2, 5 mM KCl, and 10 mM D-glucose. Similarly, sucrose and NaOH were applied to adjust the osmolarity to 330 mOsm/L and pH to 7.4. […] The series resistance was maintained at about 5 MΩ, with 65-70% compensation. Finally, the leakage currents and linear capacitance were subtracted digitally according to the P/4 protocol.
The voltage-dependent inhibition of Kv4.2 and Kv4.3 channels by JZTX-X was determined by the depolarizing pulses to potentials in 10 mV steps from −80 to +60 mV at an interval of 10 s and the holding potential of -80 mV. […] For quantifying the voltage-depending inhibition of Kv4.2 and Kv4.3 channels, the relative current was drawn based on the membrane potential. Under control conditions, those threshold potentials to initially activate Kv4.2 and Kv4.3 currents were around -40 mV. The JZTX-X treatment at 500 nM inhibited the Kv4.2 and Kv4.3 currents, and then the I-V relation shifted to the right by about 30 mV (from -39.5 ± 1.9 mV to -11.3 ± 1.2 mV ) and 40 mV (from -39.8 ± 1.5 mV to -2.5 ± 0.9 mV ), separately (Fig. 5C and D). Additionally, the channel conductance also shifted rightward by around 30 mV (data not shown).
Figure 5. Effects of JZTX-X on I-V relationships in Kv4.2 and Kv4.3 channels: Each cell was held at the voltage of -80 mV, and the […] current families were induced at the depolarization steps of 300 ms to different potentials (range, -80 mV to +60 mV at 10 mV increments). […] ( C ) and ( D ) represented I-V relation for Kv4.2 (C) and Kv4.3 (D) currents before (filled circles) and after 100 nM (open circles) or 500 nM (filled inverted triangles) JZTX-X treatment, respectively. ( E ) and ( F ) represented the fractional suppression on Kv4.2 (E) and Kv4.3 (F) currents after 100 nM (filled circles) and 500 nM (open circles) JZTX-X treatment, respectively. All data were expressed as mean ± S.E.M (n = 5-7 cells).

CC(C)C[C@@H]1NC(=O)[C@H](CCCCN)NC(=O)[C@H](Cc2ccc(O)cc2)NC(=O)[C@@H]2CSSC[C@@H]3NC(=O)[C@H](Cc4ccc(O)cc4)NC(=O)[C@H](Cc4ccccc4)NC(=O)CNC(=O)[C@H](C)NC(=O)[C@H](CSSC[C@H](NC(=O)[C@@H](N)CC(C)C)C(=O)N[C@@H](CO)C(=O)N[C@@H](CCCNC(=N)N)C(=O)N[C@@H](CCC(=O)O)C(=O)NCC(=O)N[C@@H](CCC(=O)O)C(=O)N[C@@H](Cc4ccccc4)C(=O)N2)NC(=O)[C@H](CSSC[C@@H](C(=O)N[C@@H](Cc2ccc(O)cc2)C(=O)N[C@@H](CCCNC(=N)N)C(=O)N[C@@H](CC(N)=O)C(=O)O)NC(=O)[C@H](Cc2c[nH]cn2)NC(=O)[C@H](CC(C)C)NC(=O)[C@H](C(C)C)NC(=O)[C@H](Cc2ccccc2)NC(=O)[C@H](C)NC(=O)[C@H](CCCCN)NC3=O)NC(=O)[C@H](CCCCN)NC(=O)[C@H](CCCNC(=N)N)NC1=O [JZTX-X, Jingzhaotoxin-X] (H-LCSREGEFCYKLRKCCAGFYCKAFVLHCYRN-OH; disulfide 2-16, 9-21, 15-28; N-terminus assumed)
effect on Nav1.7 channel (Nav1.7): negligible effect; also recorded: did not affect the currents | reduction of Kv4.2 currents over voltage range (Kv4.2; 100 nM, -80 to +60 mV in 10 mV steps): reduced the currents of Kv4.2 channels throughout the whole voltage range | I-V relation potential after toxin, Kv4.2 (Kv4.2; 500 nM, control -39.5 ± 1.9 mV, holding -80 mV, n = 5-7 cells): -11.3 ± 1.2 mV | rightward shift of I-V relation, Kv4.2 (Kv4.2; 500 nM, holding -80 mV): about 30 mV | rightward shift of channel conductance, Kv4.2 (Kv4.2; data not shown, channel not named separately): about 30 mV | voltage dependence of Kv4.2 inhibition (Kv4.2; test potentials -10 to +60 mV, 100 nM and 500 nM): dependent on voltage
